Laboratory results as given in patent US20130310256A1, “HERBICIDAL COMPOSITIONS COMPRISING 4-AMINO-3-CHLORO-5-FLUORO-6-(4-CHLORO-2-FLUORO-3-METHOXYPHENYL) PYRIDINE-2-CARBOXYLIC ACID OR A DERIVATIVE THEREOF AND VLCFA AND LIPID SYNTHESIS INHIBITING HERBICIDES” (DOW AGROSCIENCES LLC, priority 2008, published 2013).

How the values were obtained:
ECHCG = assay: Example II: in-water applied weed control, transplanted paddy rice, greenhouse; format: in vivo, Echinochloa crus-galli (L.) Beauv. (barnyardgrass)
Experimental: (§1) Weed seeds or nutlets of the desired test plant species were planted in puddled soil (mud) prepared by mixing a shredded, non-sterilized mineral soil (50.5 percent silt, 25.5 percent clay, and 24 percent sand, with a pH of about 7.6 and an organic matter content of about 2.9 percent) and water at a 1:1 volumetric ratio. The prepared mud was dispensed in 365 mL aliquots into 16-ounce (oz.) non-perforated plastic pots with a surface area of 86.59 square centimeters (cm^2) leaving a headspace of 3 centimeters (cm) in each pot. Mud was allowed to dry overnight prior to planting or transplanting. Rice seeds were planted in Sun Gro MetroMix® 306 planting mixture, which typically has a pH of 6.0 to 6.8 and an organic matter content of about 30 percent, in plastic plug trays. Seedlings at the second or third leaf stage of growth were transplanted into 840 mL of mud contained in 32-oz. non-perforated plastic pots with a surface area of 86.59 cm^2 4 days prior to herbicide application. The paddy was created by filling the headspace of the pots with 2.5 to 3 cm of water. When required to ensure good germination and healthy plants, a fungicide treatment and/or other chemical or physical treatment was applied. The plants were grown for 4-22 days in a greenhouse with an approximate 14 hr photoperiod which was maintained at about 29′C during the day and 26° C. during the night. Nutrients were added as Osmocote® (19:6:12, N:P:K+ minor nutrients) at 2 g per 16-oz. pot and 4 g per 32-oz. pot. Water was added on a regular basis to maintain the paddy flood, and supplemental lighting was provided with overhead metal halide 1000-Watt lamps as necessary. The plants were employed for testing when they reached the first through fourth true leaf stage.
(§2) Treatments consisted of the acid or esters of 4-amino-3-chloro-5-fluoro-6-(4-chloro-2-fluoro-3-methoxy-phenyl)pyridine-2-carboxylic acid (compound A) each formulated as an SC (suspension concentrate) and various herbicidal components alone and in combination. Forms of compound A were applied on an acid equivalent basis.
(§3) The herbicidal components were applied on an active ingredient basis and included very long chain fatty acid (VLCFA) synthesis-inhibiting and fatty acid/lipid synthesis-inhibiting herbicides acetochlor (technical grade material), acetochlor+dichlormid formulateded as Topnotch®, pretilachlor (technical grade material), butachlor formulated as Butachlor EC, fentrazamide formulated as Fentrazamide EC, thiobencarb formulated as Bolero® 8EC, cafenstrole formulated as Himeadow® WP or Lapost® Flowable, benfuresate formulated as Full Shot®, anilofos (technical grade material), mefenacet (technical grade material), molinate (technical grade material), and thenylchlor (technical grade material).
(§4) Treatment requirements for each compound or herbicidal component were calculated based upon the rates being tested, the concentration of active ingredient or acid equivalent in the formulation, an application volume of 2 mL per component per pot, and an application area of 86.59 cm^2 per pot.
(§5) For formulated compounds, a measured amount was placed in an individual 100 or 200 mL glass vial and was dissolved in a volume of 1.25% (v/v) Agri-Dex® crop oil concentrate to obtain application solutions.
(§6) For technical grade compounds, a weighed amount was placed in an individual 100 to 200 mL glass vial and was dissolved in a volume of acetone to obtain concentrated stock solutions. […] The concentrated stock solutions obtained were diluted with an equivalent volume of an aqueous mixture containing 2.5% (v/v) crop oil concentrate so that the final application solutions contained 1.25% (v/v) crop oil concentrate.
(§7) Applications were made by injecting with a pipetter appropriate amounts of the application solutions, individually and sequentially, into the aqueous layer of the paddy. Control plants were treated in the same manner with the solvent blank. […]

FIMMI = assay: as above; format: in vivo, Fimbristylis miliacea (L.) Vahl (globe fringerush); conditions: for Visual Weed Control FIMMI Obs: 19 DAA
Experimental: as §1, §2, §3, §4, §5, §6, §7

CCS(=O)(=O)Oc1ccc2c(c1)C(C)(C)CO2 [Benfuresate, 2,3-dihydro-3,3-dimethyl-5-benzofuranyl ethanesulfonate]
Visual Weed Control ECHCG Obs (ECHCG; 75 gai/ha (Full Slot), 22 DAA): 0%
Visual Weed Control ECHCG Obs (ECHCG; 150 gai/ha (Full Slot), 22 DAA): 0%

CCN(CC)C(=O)n1cnc(S(=O)(=O)c2c(C)cc(C)cc2C)n1 [Cafenstrole, N,N-diethyl-3-[(2,4,6-trimethylphenyl)sulfonyl]-1H-1,2,4-triazole-1-carboxamide]
Visual Weed Control ECHCG Obs (ECHCG; 52.5 gai/ha (Himeadow WP), 21 DAA): 20%
Visual Weed Control ECHCG Obs (ECHCG; 105 gai/ha (Himeadow WP), 21 DAA): 25%

COc1c(Cl)ccc(-c2nc(C(=O)O)c(Cl)c(N)c2F)c1F [Compound A Acid, 4-amino-3-chloro-6-(4-chloro-2-fluoro-3-methoxyphenyl)-5-fluoropyridine-2-carboxylic acid]
Visual Weed Control (%) - 20 DAA FIMMI Obs (FIMMI; 8.75 gae/ha): 50%
Visual Weed Control (%) - 21 DAA ECHCG Obs (ECHCG; 8.75 gae/ha): 0%
Visual Weed Control (%) - 22 DAA ECHCG Obs (ECHCG; 8.75 gae/ha): 0%
Visual Weed Control ECHCG Obs (ECHCG; 8.75 gae/ha, 21 DAA): 0%
Visual Weed Control (%) - 21 DAA ECHCG Obs (ECHCG; 17.5 gae/ha): 0%
Visual Weed Control (%) - 22 DAA ECHCG Obs (ECHCG; 17.5 gae/ha): 15%
Visual Weed Control ECHCG Obs (ECHCG; 17.5 gae/ha, 21 DAA): 0%
Visual Weed Control (%) - 21 DAA ECHCG Obs (ECHCG; 35 gae/ha): 20%
Visual Weed Control (%) - 22 DAA ECHCG Obs (ECHCG; 35 gae/ha): 15%
Visual Weed Control ECHCG Obs (ECHCG; 35 gae/ha, 21 DAA): 20%
Visual Weed Control ECHCG Obs (ECHCG; 42.4 gae/ha, 22 DAA): 30%

COc1c(Cl)ccc(-c2nc(C(=O)OCc3ccccc3)c(Cl)c(N)c2F)c1F [Compound A Benzyl Ester, benzyl ester of 4-amino-3-chloro-5-fluoro-6-(4-chloro-2-fluoro-3-methoxy-phenyl)pyridine-2-carboxylic acid]
Visual Weed Control (%) - 20 DAA FIMMI Obs (FIMMI; 4.38 gae/ha): 30%
Visual Weed Control FIMMI Obs (FIMMI; 8 gae/ha): 0%
Visual Weed Control (%) - 20 DAA FIMMI Obs (FIMMI; 8.75 gae/ha): 60%
Visual Weed Control FIMMI Obs (FIMMI; 16 gae/ha): 0%
Visual Weed Control FIMMI Obs (FIMMI; 32 gae/ha): 85%
Visual Weed Control (%) - 21 DAA ECHCG Obs (ECHCG; 4.38 gae/ha): 15%
Visual Weed Control (%) - 22 DAA ECHCG Obs (ECHCG; 4.38 gae/ha): 10%
Visual Weed Control ECHCG Obs (ECHCG; 4.38 gae/ha, 21 DAA): 15%
Visual Weed Control ECHCG Obs (ECHCG; 8 gae/ha, 19 DAA): 30%
Visual Weed Control (%) - 21 DAA ECHCG Obs (ECHCG; 8.75 gae/ha): 20%
Visual Weed Control (%) - 22 DAA ECHCG Obs (ECHCG; 8.75 gae/ha): 25%
Visual Weed Control ECHCG Obs (ECHCG; 8.75 gae/ha, 21 DAA): 20%
Visual Weed Control ECHCG Obs (ECHCG; 16 gae/ha, 19 DAA): 20%
Visual Weed Control (%) - 21 DAA ECHCG Obs (ECHCG; 17.5 gae/ha): 75%
Visual Weed Control (%) - 22 DAA ECHCG Obs (ECHCG; 17.5 gae/ha): 60%
Visual Weed Control ECHCG Obs (ECHCG; 17.5 gae/ha, 21 DAA): 75%
Visual Weed Control ECHCG Obs (ECHCG; 32 gae/ha, 19 DAA): 40%

CCCOCCN(C(=O)CCl)c1c(CC)cccc1CC [Pretilachlor, 2-chloro-N-(2,6-diethylphenyl)-N-(2-propoxyethyl)acetamide]
Visual Weed Control (%) - 20 DAA FIMMI Obs (FIMMI; 75 gai/ha): 40%
Visual Weed Control (%) - 20 DAA FIMMI Obs (FIMMI; 150 gai/ha): 45%
